Assay results reported in the supplement of paper PMC13380429.

How the values were obtained:
Details in all cases: 72 h
HepG2 [1] = assay: cell viability relative to DMSO; higher = less toxic
Vero E6 [2] = assay: as above
Calu-3 [3] = assay: as above
Caco-2 [4] = assay: as above
U2OS [5] = assay: as above
HepG2 [6] = assay: relative viability EC50 (midpoint between 100% and the lowest measured viability); higher = less toxic
Vero E6 [7] = assay: as above
Calu-3 [8] = assay: as above
Caco-2 [9] = assay: as above
U2OS [10] = assay: as above
HepG2 [11] = assay: drug sensitivity score (DSS) for viability; higher = more toxic; extreme values may be limits of the assay
Vero E6 [12] = assay: as above
Calu-3 [13] = assay: as above
Caco-2 [14] = assay: as above
U2OS [15] = assay: as above

| Compound | cell viability (HepG2 [1]; 1 nM) [%] | cell viability (HepG2 [1]; 10 nM) [%] | cell viability (HepG2 [1]; 100 nM) [%] | cell viability (HepG2 [1]; 1000 nM) [%] | cell viability (HepG2 [1]; 10000 nM) [%] | cell viability (Vero E6 [2]; 1 nM) [%] | cell viability (Vero E6 [2]; 10 nM) [%] | cell viability (Vero E6 [2]; 100 nM) [%] | cell viability (Vero E6 [2]; 1000 nM) [%] | cell viability (Vero E6 [2]; 10000 nM) [%] | cell viability (Calu-3 [3]; 1 nM) [%] | cell viability (Calu-3 [3]; 10 nM) [%] | cell viability (Calu-3 [3]; 100 nM) [%] | cell viability (Calu-3 [3]; 1000 nM) [%] | cell viability (Calu-3 [3]; 10000 nM) [%] | cell viability (Caco-2 [4]; 1 nM) [%] | cell viability (Caco-2 [4]; 10 nM) [%] | cell viability (Caco-2 [4]; 100 nM) [%] | cell viability (Caco-2 [4]; 1000 nM) [%] | cell viability (Caco-2 [4]; 10000 nM) [%] | cell viability (U2OS [5]; 1 nM) [%] | cell viability (U2OS [5]; 10 nM) [%] | cell viability (U2OS [5]; 100 nM) [%] | cell viability (U2OS [5]; 1000 nM) [%] | cell viability (U2OS [5]; 10000 nM) [%] | relative viability EC50 (HepG2 [6]) [µM] | relative viability EC50 (Vero E6 [7]) [µM] | relative viability EC50 (Calu-3 [8]) [µM] | relative viability EC50 (Caco-2 [9]) [µM] | relative viability EC50 (U2OS [10]) [µM] | drug sensitivity score (HepG2 [11]) | drug sensitivity score (Vero E6 [12]) | drug sensitivity score (Calu-3 [13]) | drug sensitivity score (Caco-2 [14]) | drug sensitivity score (U2OS [15]) |
| --- | --- | --- | --- | --- | --- | --- | --- | --- | --- | --- | --- | --- | --- | --- | --- | --- | --- | --- | --- | --- | --- | --- | --- | --- | --- | --- | --- | --- | --- | --- | --- | --- | --- | --- | --- |
| C1CCC(/N=C(\NC23CC4CC(CC(C4)C2)C3)N2CCOCC2)CC1 | 96.1 | 108 | 91.7 | 113 | 108 | 88.3 | 96 | 90.6 | 98.9 | 104 | 106 | 90.2 | 103 | 89 | 100 | 101 | 91.7 | 102 | 96.7 | 101 | 96.4 | 94.8 | 102 | 98.6 | 89.5 | > 10 | > 10 | > 10 | > 10 | > 10 | 0 | 0 | 0 | 0 | 0 |
| CC(Oc1ccc(O)cc1)(P(=O)(O)O)P(=O)(O)O | 106 | 95.4 | 97.6 | 99.2 | 102 | 96.5 | 104 | 97.7 | 98.7 | 95.8 | 106 | 88.6 | 103 | 84.8 | 97.1 | 110 | 98.7 | 98 | 87.1 | 104 | 104 | 99.5 | 105 | 98 | 100 | > 10 | > 10 | > 10 | > 10 | > 10 | 0 | 0 | 0 | 0 | 0 |
| CC1=NN=C(c2ccc(N)cc2)c2cc3c(cc2C1)OCO3 | 109 | 93.2 | 104 | 97.9 | 106 | 94.5 | 102 | 98.4 | 104 | 100 | 107 | 88.2 | 103 | 87.6 | 95.1 | 95.7 | 100 | 107 | 102 | 81 | 93.3 | 93.9 | 99.3 | 96.8 | 94 | > 10 | > 10 | > 10 | > 10 | > 10 | 0 | 0 | 0 | 0.4 | 0 |
| CCCNCCc1ccc(NS(=O)(=O)c2ccc(OC(F)(F)F)cc2)cc1 | 101 | 92.5 | 104 | 85.5 | 90 | 116 | 106 | 101 | 103 | 88.2 | 97.8 | 108 | 102 | 100 | 97.4 | 102 | 102 | 91.5 | 103 | 98.2 | 105 | 104 | 100 | 98.4 | 92.9 | > 10 | > 10 | > 10 | > 10 | > 10 | 1.1 | 0 | 0 | 0 | 0 |
| CN(C)CCn1cc(S(=O)(=O)c2cccc(F)c2)c2cccnc21 | 106 | 110 | 91.8 | 103 | 97.5 | 98.6 | 102 | 101 | 105 | 97.7 | 116 | 94.7 | 90.4 | 97.5 | 95.3 | 98.2 | 102 | 106 | 98.8 | 103 | 103 | 98.3 | 99.9 | 98.2 | 103 | > 10 | > 10 | > 10 | > 10 | > 10 | 0 | 0 | 0 | 0 | 0 |
| COCCOc1ccc2c(c1)ncn2-c1ccc2cccc(N3CCC(N)CC3)c2n1 | 99.3 | 101 | 98.3 | 93.3 | 8.1 | 98.3 | 97.1 | 102 | 94.9 | 48.5 | 96 | 92.7 | 103 | 123 | 87.4 | 94.1 | 108 | 98.2 | 104 | 90.4 | 98.6 | 104 | 95.3 | 95.4 | 45.2 | 2.57 | 2.35 | > 10 | > 10 | 2.47 | 6.1 | 3.6 | 0 | 0 | 3.7 |
